Source: patent US6737383B1, “Herbicidal oxadiazolidines” (priority 1999, dated 2004)

Key:
bedstraw = assay: Test B pre/postemergence bedstraw; type: in vivo, Galium aparine; conditions: for Bedstraw plant response rating: scale of 0 to 10 where 0 is no effect and 10 is complete control
In short: (§1)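 Test chemicals in a non-phytotoxic solvent mixture with surfactant were sprayed preemergence onto planted seeds and postemergence onto plants 2 to 18 cm tall (1- to 4-leaf stage). After twelve to sixteen days in a greenhouse, injury was visually rated against untreated controls from 0 (no effect) to 10 (complete control).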

blackgrass = assay: Test B pre/postemergence blackgrass; type: in vivo, Alopecurus myosuroides; conditions: for Blackgrass plant response rating: scale of 0 to 10 where 0 is no effect and 10 is complete control
In short: as §1

surinam grass = assay: Test B pre/postemergence surinam grass; type: in vivo, Brachiaria decumbens; conditions: for B. signalgrass plant response rating: scale of 0 to 10 where 0 is no effect and 10 is complete control
In short: as §1

cocklebur = assay: Test B pre/postemergence cocklebur; type: in vivo, Xanthium strumarium; conditions: for Cocklebur plant response rating: scale of 0 to 10 where 0 is no effect and 10 is complete control
In short: as §1

corn = assay: Test B pre/postemergence corn; type: in vivo, Zea mays; conditions: for Corn plant response rating: scale of 0 to 10 where 0 is no effect and 10 is complete control
In short: as §1

crabgrass = assay: Test B pre/postemergence crabgrass; type: in vivo, Digitaria sanguinalis; conditions: for Crabgrass plant response rating: scale of 0 to 10 where 0 is no effect and 10 is complete control
In short: as §1

giant foxtail = assay: Test B pre/postemergence giant foxtail; type: in vivo, Setaria faberii; conditions: for Giant foxtail plant response rating: scale of 0 to 10 where 0 is no effect and 10 is complete control
In short: as §1

morningglory = assay: Test B pre/postemergence morningglory; type: in vivo, Ipomoea hederacea; conditions: for Morningglory plant response rating: scale of 0 to 10 where 0 is no effect and 10 is complete control
In short: as §1

pigweed = assay: Test B pre/postemergence pigweed; type: in vivo, Amaranthus retroflexus; conditions: for Redroot pigweed plant response rating: scale of 0 to 10 where 0 is no effect and 10 is complete control
In short: as §1

rape = assay: Test B pre/postemergence rape; type: in vivo, Brassica napus; conditions: for Rape plant response rating: scale of 0 to 10 where 0 is no effect and 10 is complete control
In short: as §1

soybean = assay: Test B pre/postemergence soybean; type: in vivo, Glycine max; conditions: for Soybean plant response rating: scale of 0 to 10 where 0 is no effect and 10 is complete control
In short: as §1

sugar beet = assay: Test B pre/postemergence sugar beet; type: in vivo, Beta vulgaris; conditions: for Sugarbeets plant response rating: scale of 0 to 10 where 0 is no effect and 10 is complete control
In short: as §1

velvetleaf = assay: Test B pre/postemergence velvetleaf; type: in vivo, Abutilon theophrasti; conditions: for Velvetleaf plant response rating: scale of 0 to 10 where 0 is no effect and 10 is complete control
In short: as §1

wheat = assay: Test B pre/postemergence wheat; type: in vivo, Triticum aestivum; conditions: for Wheat plant response rating: scale of 0 to 10 where 0 is no effect and 10 is complete control
In short: as §1

wild oat = assay: Test B pre/postemergence wild oat; type: in vivo, Avena fatua; conditions: for Wild oats plant response rating: scale of 0 to 10 where 0 is no effect and 10 is complete control
In short: as §1

purple nutsedge = assay: Test B pre/postemergence purple nutsedge; type: in vivo, Cyperus rotundus; conditions: for Nutsedge plant response rating: scale of 0 to 10 where 0 is no effect and 10 is complete control
In short: as §1

[1] = Postemergence, Rate 125 g/ha, scale 0 to 10, 0 is no effect, 10 is complete control
[2] = Postemergence, Rate 250 g/ha, scale 0 to 10, 0 is no effect, 10 is complete control
[3] = Preemergence, Rate 62 g/ha, scale 0 to 10 (0 no effect, 10 complete control)
[4] = Rate 500 g/ha, Postemergence, scale 0 to 10, 0 no effect, 10 complete control

CC(C)N(C(=O)n1oc(=O)n(C2(C)CC2)c1=O)c1ccc(Cl)cc1 [Compound 361]
Plant response rating, Bedstraw (bedstraw; [1]): 7
Plant response rating, Bedstraw (bedstraw; [2]): 8
Plant response rating, Bedstraw (bedstraw; [3]): 0
Bedstraw plant response rating (0 to 10 scale) (bedstraw; Preemergence, Rate 125 g/ha): 0
Bedstraw plant response rating (bedstraw; Preemergence, Rate 250 g/ha): 0
Bedstraw plant response rating (bedstraw; Preemergence, Rate 500 g/ha): 2
Bedstraw plant response rating (bedstraw; Rate 62 g/ha, Postemergence): 7
Plant response rating, Bedstraw (bedstraw; [4]): 8
Plant response rating, Blackgrass (blackgrass; [1]): 7
Plant response rating, Blackgrass (blackgrass; [2]): 8
Plant response rating, Blackgrass (blackgrass; [3]): 3
Blackgrass plant response rating (0 to 10 scale) (blackgrass; Preemergence, Rate 125 g/ha): 8
Blackgrass plant response rating (blackgrass; Preemergence, Rate 250 g/ha): 10
Blackgrass plant response rating (blackgrass; Preemergence, Rate 500 g/ha): 10
Blackgrass plant response rating (blackgrass; Rate 62 g/ha, Postemergence): 5
Plant response rating, Blackgrass (blackgrass; [4]): 8
Plant response rating, B. signalgrass (surinam grass; [1]): 0
Plant response rating, B. signalgrass (surinam grass; [2]): 3
Plant response rating, B. signalgrass (surinam grass; [3]): 3
B. signalgrass plant response rating (0 to 10 scale, 0 is no effect, 10 is complete control) (surinam grass; Preemergence, Rate 125 g/ha): 4
B. signalgrass plant response rating (surinam grass; Preemergence, Rate 250 g/ha): 4
B. signalgrass plant response rating (surinam grass; Preemergence, Rate 500 g/ha): 6
B. signalgrass plant response rating (surinam grass; Rate 62 g/ha, Postemergence): 0
Plant response rating, B. signalgrass (surinam grass; [4]): 4
Plant response rating, Cocklebur (cocklebur; [1]): 0
Plant response rating, Cocklebur (cocklebur; [2]): 0
Plant response rating, Cocklebur (cocklebur; [3]): 0
Cocklebur plant response rating (0 to 10 scale) (cocklebur; Preemergence, Rate 125 g/ha): 0
Cocklebur plant response rating (cocklebur; Preemergence, Rate 250 g/ha): 0
Cocklebur plant response rating (cocklebur; Preemergence, Rate 500 g/ha): 0
Cocklebur plant response rating (cocklebur; Rate 62 g/ha, Postemergence): 0
Plant response rating, Cocklebur (cocklebur; [4]): 2
Plant response rating, Corn (corn; [1]): 0
Plant response rating, Corn (corn; [2]): 0
Plant response rating, Corn (corn; [3]): 0
Corn plant response rating (0 to 10 scale) (corn; Preemergence, Rate 125 g/ha): 0
Corn plant response rating (corn; Preemergence, Rate 250 g/ha): 1
Corn plant response rating (corn; Preemergence, Rate 500 g/ha): 6
Corn plant response rating (corn; Rate 62 g/ha, Postemergence): 0
Plant response rating, Corn (corn; [4]): 0
Plant response rating, Crabgrass (crabgrass; [1]): 2
Plant response rating, Crabgrass (crabgrass; [2]): 2
Plant response rating, Crabgrass (crabgrass; [3]): 2
Crabgrass plant response rating (0 to 10 scale) (crabgrass; Preemergence, Rate 125 g/ha): 7
Crabgrass plant response rating (crabgrass; Preemergence, Rate 250 g/ha): 7
Crabgrass plant response rating (crabgrass; Preemergence, Rate 500 g/ha): 9
Crabgrass plant response rating (crabgrass; Rate 62 g/ha, Postemergence): 0
Plant response rating, Crabgrass (crabgrass; [4]): 5
Plant response rating, Giant foxtail (giant foxtail; [1]): 4
Plant response rating, Giant foxtail (giant foxtail; [2]): 5
Plant response rating, Giant foxtail (giant foxtail; [3]): 7
Giant foxtail plant response rating (0 to 10 scale) (giant foxtail; Preemergence, Rate 125 g/ha): 9
Giant foxtail plant response rating (giant foxtail; Preemergence, Rate 250 g/ha): 10
Giant foxtail plant response rating (giant foxtail; Preemergence, Rate 500 g/ha): 10
Giant foxtail plant response rating (giant foxtail; Rate 62 g/ha, Postemergence): 1
Plant response rating, Giant foxtail (giant foxtail; [4]): 5
Plant response rating, Morningglory (morningglory; [1]): 2
Plant response rating, Morningglory (morningglory; [2]): 7
Plant response rating, Morningglory (morningglory; [3]): 0
Morningglory plant response rating (0 to 10 scale) (morningglory; Preemergence, Rate 125 g/ha): 0
Morningglory plant response rating (morningglory; Preemergence, Rate 250 g/ha): 0
Morningglory plant response rating (morningglory; Preemergence, Rate 500 g/ha): 0
Morningglory plant response rating (morningglory; Rate 62 g/ha, Postemergence): 1
Plant response rating, Redroot pigweed (pigweed; [1]): 5
Plant response rating, Redroot pigweed (pigweed; [2]): 6
Plant response rating, Redroot pigweed (pigweed; [3]): 1
Redroot pigweed plant response rating (0 to 10 scale) (pigweed; Preemergence, Rate 125 g/ha): 7
Redroot pigweed plant response rating (pigweed; Preemergence, Rate 250 g/ha): 8
Redroot pigweed plant response rating (pigweed; Preemergence, Rate 500 g/ha): 10
Redroot pigweed plant response rating (pigweed; Rate 62 g/ha, Postemergence): 3
Plant response rating, Redroot pigweed (pigweed; [4]): 7
Plant response rating, Rape (rape; [1]): 3
Plant response rating, Rape (rape; [2]): 3
Plant response rating, Rape (rape; [3]): 4
Rape plant response rating (0 to 10 scale) (rape; Preemergence, Rate 125 g/ha): 5
Rape plant response rating (rape; Preemergence, Rate 250 g/ha): 5
Rape plant response rating (rape; Preemergence, Rate 500 g/ha): 6
Rape plant response rating (rape; Rate 62 g/ha, Postemergence): 2
Plant response rating, Rape (rape; [4]): 4
Plant response rating, Soybean (soybean; [1]): 4
Plant response rating, Soybean (soybean; [2]): 5
Plant response rating, Soybean (soybean; [3]): 0
Soybean plant response rating (0 to 10 scale) (soybean; Preemergence, Rate 125 g/ha): 0
Soybean plant response rating (soybean; Preemergence, Rate 250 g/ha): 0
Soybean plant response rating (soybean; Preemergence, Rate 500 g/ha): 1
Soybean plant response rating (soybean; Rate 62 g/ha, Postemergence): 2
Plant response rating, Soybean (soybean; [4]): 5
Plant response rating, Sugarbeets (sugar beet; [1]): 5
Plant response rating, Sugarbeets (sugar beet; [2]): 5
Plant response rating, Sugarbeets (sugar beet; [3]): 0
Sugarbeets plant response rating (0 to 10 scale) (sugar beet; Preemergence, Rate 125 g/ha): 2
Sugarbeets plant response rating (sugar beet; Preemergence, Rate 250 g/ha): 6
Sugarbeets plant response rating (sugar beet; Preemergence, Rate 500 g/ha): 6
Sugarbeets plant response rating (sugar beet; Rate 62 g/ha, Postemergence): 2
Plant response rating, Sugarbeets (sugar beet; [4]): 6
Plant response rating, Velvetleaf (velvetleaf; [1]): 0
Plant response rating, Velvetleaf (velvetleaf; [2]): 0
Plant response rating, Velvetleaf (velvetleaf; [3]): 0
Velvetleaf plant response rating (0 to 10 scale) (velvetleaf; Preemergence, Rate 125 g/ha): 0
Velvetleaf plant response rating (velvetleaf; Preemergence, Rate 250 g/ha): 4
Velvetleaf plant response rating (velvetleaf; Preemergence, Rate 500 g/ha): 5
Velvetleaf plant response rating (velvetleaf; Rate 62 g/ha, Postemergence): 0
Plant response rating, Velvetleaf (velvetleaf; [4]): 3
Plant response rating, Wheat (wheat; [1]): 0
Plant response rating, Wheat (wheat; [2]): 0
Plant response rating, Wheat (wheat; [3]): 0
Wheat plant response rating (0 to 10 scale) (wheat; Preemergence, Rate 125 g/ha): 0
Wheat plant response rating (wheat; Preemergence, Rate 250 g/ha): 2
Wheat plant response rating (wheat; Preemergence, Rate 500 g/ha): 6
Wheat plant response rating (wheat; Rate 62 g/ha, Postemergence): 0
Plant response rating, Wheat (wheat; [4]): 2
Plant response rating, Wild oats (wild oat; [1]): 2
Plant response rating, Wild oats (wild oat; [2]): 6
Plant response rating, Wild oats (wild oat; [3]): 7
Wild oats plant response rating (0 to 10 scale) (wild oat; Preemergence, Rate 125 g/ha): 8
Wild oats plant response rating (wild oat; Preemergence, Rate 250 g/ha): 8
Wild oats plant response rating (wild oat; Preemergence, Rate 500 g/ha): 10
Wild oats plant response rating (wild oat; Rate 62 g/ha, Postemergence): 0
Plant response rating, Wild oats (wild oat; [4]): 6
Plant response rating, Nutsedge (purple nutsedge; [1]): 0
Plant response rating, Nutsedge (purple nutsedge; [2]): 0
Plant response rating, Nutsedge (purple nutsedge; [3]): 0
Nutsedge plant response rating (0 to 10 scale) (purple nutsedge; Preemergence, Rate 125 g/ha): 0
Nutsedge plant response rating (purple nutsedge; Preemergence, Rate 250 g/ha): 0
Nutsedge plant response rating (purple nutsedge; Preemergence, Rate 500 g/ha): 0
Nutsedge plant response rating (purple nutsedge; Rate 62 g/ha, Postemergence): 0
Plant response rating, Nutsedge (purple nutsedge; [4]): 0
